Experimental data published in US9440950B2, “Arginine methyltransferase inhibitors and uses thereof” (Epizyme, Inc., priority 2013, dated 2016).

target: T1, human PRMT3 (Homo sapiens, UniProt O60678); assay: PRMT3 Biochemical Assay; settings: peptide substrate, 3H-SAM Flashplate assay
T1 construct: GST-tagged PRMT3; made in house; host or cells: E. coli BL21(DE3) Gold (pGEX-KG)
Source text: S-adenosylmethionine (SAM), S-adenosylhomocysteine (SAH), bicine, Tween20, dimethylsulfoxide (DMSO), bovine skin gelatin (BSG), isopropyl-P3-D-thiogalactopyranoside (IPTG), and Tris(2-carboxyethyl)phosphine hydrochloride solution (TCEP) were purchased from Sigma-Aldrich at the highest level of purity possible. ^3H-SAM was purchase from American Radiolabeled Chemicals with a specific activity of 80 Ci/mmol. 384-well streptavidin Flashplates were purchased from PerkinElmer.
Peptide containing the classic RMT substrate motif was synthesized with an N-terminal linker-affinity tag motif and a C-terminal amide cap by 21st Century Biochemicals. The peptide was purified by high-performance liquid chromatography (HPLC) to greater than 95% purity and confirmed by liquid chromatography mass spectrometry (LC-MS). The sequence was Biot-Ahx-[…]-amide (SEQ ID NO.:11).
Full-length human PRMT3 (NM_005788.3) isoform 1 transcript clone was amplified from an HEK 293 cDNA library and subcloned into pGEX-KG (GE Life Sciences). The resulting construct encodes an N-terminal GST tag and a thrombin cleavage sequence ([…] […] […] […]) (SEQ ID NO.: 12) fused directly to Cys 2 of PRMT3.
E. coli (BL21(DE3) Gold, Stratagene) made competent by the CaCl2 method were transformed with the PRMT3 construct and ampicillin selection. Protein over-expression was accomplished by growing the PRMT3 expressing E. coli clone and inducing expression with 0.3 mM IPTG at 16° C. The culture was grown for 12 hours, harvested by centrifugation, and stored at −80° C. for purification.
GST-tagged PRMT3 eluted with 25-400 mM phosphate in buffer C. Protein was concentrated and buffer was exchanged to 20 mM Tris, 150 mM NaCl, 5% glycerol, 5 mM β-mercaptoethanol, pH7.8 by ultrafiltration. The purity of recovered protein was 70%.
General Procedure for PRMT3 Enzyme Assays on Peptide Substrates.
The assays were all performed in a buffer consisting of 20 mM Bicine (pH=7.6), 1 mM TCEP, 0.005% BSG, and 0.002% Tween 20, prepared on the day of use. Compounds in 100% DMSO (1 ul) were spotted into a polypropylene 384-well V-bottom plates (Greiner) using a Platemate Plus outfitted with a 384-channel head (Thermo Scientific). DMSO (1 ul) was added to Columns 11, 12, 23, 24, rows A-H for the maximum signal control and 1 ul of SAH, a known product and inhibitor of PRMT3, was added to columns 11, 12, 23, 24, rows I-P for the minimum signal control. A cocktail (40 ul) containing the PRMT3 enzyme was added by Multidrop Combi (Thermo-Fisher). The compounds were allowed to incubate with PRMT3 for 30 min at room temperature, then a cocktail (10 ul) containing SAM and peptide was added to initiate the reaction (final volume=51 ul). The final concentrations of the components were as follows: PRMT3 was 0.5 nM, ^3H-SAM was 100 nM, non-radiolabeled SAM was 1.8 uM, peptide was 330 nM, SAH in the minimum signal control wells was 1 mM, and the DMSO concentration was 2%. The assays were stopped by the addition of potassium chloride (10 ul) to a final concentration of 100 mM. 50 ul of the reaction in the 384-well polypropylene plate was then transferred to a 384-well Flashplate and the biotinylated peptides were allowed to bind to the streptavidin surface for at least 1 hour before being washed once with 0.1% Tween20 in a Biotek ELx405 plate washer. The plates were then read in a PerkinElmer TopCount plate reader to measure the quantity of ^3H-labeled peptide bound to the Flashplate surface, measured as disintegrations per minute (dpm) or alternatively, referred to as counts per minute (cpm).
Where dpm=disintegrations per minute, cmpd=signal in assay well, and min and max are the respective minimum and maximum signal controls.
Where top and bottom are the normally allowed to float, but may be fixed at 100 or 0 respectively in a 3-parameter fit. The Hill Coefficient normally allowed to float but may also be fixed at 1 in a 3-parameter fit. […]

T1 sequence (O60678 with tags, fused parts or gaps): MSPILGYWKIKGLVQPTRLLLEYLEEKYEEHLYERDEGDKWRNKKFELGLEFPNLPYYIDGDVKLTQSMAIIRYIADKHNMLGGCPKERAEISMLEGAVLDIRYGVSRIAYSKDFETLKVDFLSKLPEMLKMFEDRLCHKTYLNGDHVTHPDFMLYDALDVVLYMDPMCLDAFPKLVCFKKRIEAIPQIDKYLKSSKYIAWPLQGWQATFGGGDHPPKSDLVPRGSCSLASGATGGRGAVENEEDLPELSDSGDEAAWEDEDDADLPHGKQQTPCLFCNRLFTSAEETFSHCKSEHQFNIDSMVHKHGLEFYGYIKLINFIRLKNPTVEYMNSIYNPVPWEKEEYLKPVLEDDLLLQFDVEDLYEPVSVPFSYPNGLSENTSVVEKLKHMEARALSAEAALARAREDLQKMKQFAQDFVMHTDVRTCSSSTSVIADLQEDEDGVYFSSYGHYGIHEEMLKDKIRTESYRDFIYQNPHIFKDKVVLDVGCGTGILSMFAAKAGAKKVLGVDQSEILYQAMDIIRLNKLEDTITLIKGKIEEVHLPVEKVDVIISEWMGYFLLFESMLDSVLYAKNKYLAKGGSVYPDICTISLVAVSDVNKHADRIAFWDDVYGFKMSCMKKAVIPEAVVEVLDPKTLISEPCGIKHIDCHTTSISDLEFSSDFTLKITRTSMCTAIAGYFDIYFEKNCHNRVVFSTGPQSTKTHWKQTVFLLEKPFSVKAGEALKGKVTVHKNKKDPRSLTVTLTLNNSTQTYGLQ

`CNCCN(C)Cc1c[nH]nc1-c1cccnc1` [Compound 1] and `CN(CCN)Cc1c[nH]nc1-c1cccnc1` [Compound 8] cannot be ordered by IC50: at least 10 µM for the first, at least 10 µM for the second.

`CNCCN(C)Cc1c[nH]nc1-c1ccc(O)nc1` [Compound 2] and `CNCCN(C)Cc1c[nH]nc1-c1ccc(N)nc1` [Compound 3] cannot be ordered by IC50: at least 10 µM for the first, at least 10 µM for the second.

`CN(CCN)Cc1c[nH]nc1-c1cncc(S(C)(=O)=O)c1` [Compound 4] and `Cc1cncc(-c2n[nH]cc2CN(C)CCN)c1` [Compound 6] cannot be ordered by IC50: at least 10 µM for the first, at least 10 µM for the second.

`COc1ccc(-c2n[nH]cc2CN(C)CCN)cn1` [Compound 5] and `COc1cc(-c2n[nH]cc2CN(C)CCN)ccn1` [Compound 11] cannot be ordered by IC50: at least 10 µM for the first, at least 10 µM for the second.

First: CN(CCN)Cc1c[nH]nc1-c1cncc(F)c1 [Compound 7]
Second: CN(CCN)Cc1c[nH]nc1-c1cncc(Cl)c1 [Compound 19]
The IC50 of the first is higher: 3.01 to 10 µM for the first, 1.01 to 3 µM for the second. The second is the more potent here.

First: CN(CCN)Cc1c[nH]nc1-c1ccncc1 [Compound 9]
Second: Cc1ccncc1-c1n[nH]cc1CN(C)CCN [Compound 17]
The IC50 of the first is lower: 1.01 to 3 µM for the first, at least 10 µM for the second.

First: Cc1cc(-c2n[nH]cc2CN(C)CCN)cnc1Cl [Compound 10]
Second: COc1cc(-c2n[nH]cc2CN(C)CCN)c(Cl)cn1 [Compound 12]
The IC50 of the first is lower: 1.01 to 3 µM for the first, at least 10 µM for the second. The first is the more potent here.

`CN(CCN)Cc1c[nH]nc1-c1ccc(C(F)(F)F)nc1` [Compound 13, N^1-methyl-N^1-((3-(6-(trifluoromethyl)pyridin-3-yl)-1H-pyrazol-4-yl)methyl)ethane-1,2-diamine] and `CN(CCN)Cc1c[nH]nc1-c1cncc(C#N)c1` [Compound 18] cannot be ordered by IC50: 3.01 to 10 µM for the first, at least 10 µM for the second.

`COc1ncc(Cl)cc1-c1n[nH]cc1CN(C)CCN` [Compound 14] and `COc1ncccc1-c1n[nH]cc1CN(C)CCN` [Compound 15] cannot be ordered by IC50: at least 10 µM for the first, at least 10 µM for the second.

Compound `COc1ccncc1-c1n[nH]cc1CN(C)CCN` [Compound 16] has an IC50 of at least 10 µM.
